We go through 1 molecule from paper PMC11279931, “Development and Evaluation of Docetaxel-Loaded Nanostructured Lipid Carriers for Skin Cancer Therapy” (Pharmaceutics, 2024).

In brackets after ≈: the same amount, converted by molar mass.

The nature of series [1]: Docetaxel equilibrium solubility in molten solid lipids. It counts as physicochemical. Particulars: melted state at 75 °C, 24 h. The protocol: To assess the solubility of the active substance, various solid lipids were examined (such as tetradecanoic acid, decanoic acid, palmitic acid, stearic acid, GMS-SE, GMS, sorbitan monostearate, cetyl palmitate, Gelucire® 43/01, and Suppocire® NAS 50). Initially, 500 mg of each solid lipid was accurately weighed and melted. Subsequently, excess docetaxel was added to the molten lipid. The drug–lipid mixture was kept at a constant temperature of 75 °C, thus maintaining a minimum of 10 °C above the melting point of the solid lipids. The mixture was stirred at 750 rpm for 24 h. Using preheated utensils, a predetermined amount of supernatant was carefully transferred into a 5 mL volumetric flask. The transfer was done by weight to ensure precision and consistency in sample size across all tests. The transferred sample was dissolved using a suitable solvent selected based on its compatibility with both the lipid and docetaxel. Choices like methanol, dichloromethane, DMSO, or their mixtures were used depending on their efficacy in dissolving the sample thoroughly. […]
For the quantitative analysis of docetaxel, a Jasco LC-4000 Series HPLC system (JASCO Corporation, Tokyo, Japan) containing a quaternary pump (model PU-4180), an autosampler (model AS-4150), a DAD detector (model MD-4010), and a column thermostat (model CO-4061) was employed. […]

The subject of series [2] is HUVEC normal cells. The series can be described thus: MTS cytotoxicity assay. It counts as cell-based, human. The protocol: SK-MEL-24 (human melanoma cell line—HTB-71) and HUVEC (human primary umbilical vein endothelial cells—CRL-1730) were purchased from the American Type Culture Collection (ATCC). HUVEC normal cells were used as a reference. Adherent cells were maintained in culture in DMEM/F12 medium added by 2 mM L-glutamine, 10% fetal bovine serum, 100 units/mL penicillin, 100 μg/mL streptomycin, and incubated at 37 °C in 5% CO2 humidified atmosphere. After 24 h, adherent cells were treated with different concentrations of the compounds for different timeframes. A 5-FU conventional oncology drug used in cancer treatments can be used as a positive control of the experiments. […]
All assays were performed in triplicate in 96-well microtiter plates with flat bottom (Falcon), using CellTiter 96 Aqueous One Solution Cell Proliferation Assay (Promega, Madison, WI, USA), an MTS-based colorimetric assay. […] The reduction of the tetrazolium compound to formazan was spectrophotometrically measured at λ = 492 nm using a Dynex plate reader (DYNEX Technologies MRS, Chantilly, VA, USA). The percentage of viability compared to untreated cells (considered 100% viable) was calculated with the formula:(2) Cell viability=absorbance of treated cells−absorbance of culture medium/absorbance of untreated cells−absorbance of culture medium×100 […]
For orientation: Formazan colour is commonly taken as a measure of viable cells.

Series [3] relates to HUVEC normal cells. The experiment in a line: Apoptosis, Annexin V-FITC/PI flow cytometry. In kind it is cell-based, human. Particulars: 50 μg/mL, 24 h; untreated approximately 7–8%. The protocol:
(§1) SK-MEL-24 (human melanoma cell line—HTB-71) and HUVEC (human primary umbilical vein endothelial cells—CRL-1730) were purchased from the American Type Culture Collection (ATCC). HUVEC normal cells were used as a reference. Adherent cells were maintained in culture in DMEM/F12 medium added by 2 mM L-glutamine, 10% fetal bovine serum, 100 units/mL penicillin, 100 μg/mL streptomycin, and incubated at 37 °C in 5% CO2 humidified atmosphere. After 24 h, adherent cells were treated with different concentrations of the compounds for different timeframes. A 5-FU conventional oncology drug used in cancer treatments can be used as a positive control of the experiments. Cell treatments of compounds were carried out using concentrations of 200, 100, 50, 25, 12.5, 6.25, 3.125, and 1.56 μg/mL of the drug. Then, cells were detached with a nonenzymatic PBS/1 mM EDTA solution washed twice in PBS.
(§2) The apoptosis assay was performed according to the manufacturer’s instructions using the Annexin V-FITC kit from BD Biosciences. Cells treated and untreated with the experimental compound were resuspended in a cold binding buffer. The percentages of apoptotic cells were determined by double staining with Annexin V-FITC/PI. In each tube was added 400 μL of Annexin V binding buffer and the 5000 cells/sample for 15 min in the dark at room temperature. The cells were analyzed using a FACS CantoII flow-cytometer (Becton Dickinson—BD). The analysis was performed using DIVA 6.2 software to discriminate viable cells (FITC-PI-) from necrotic cells (FITC+PI+) and early apoptosis (FITC+PI-) from late apoptosis.

Series [4] has as its system SK-MEL-24 tumor cells. The series can be described thus: Apoptosis, Annexin V-FITC/PI flow cytometry. It counts as cell-based, human. Particulars: 5 and 50 μg/mL. Here is the method:
as §1, §2
For orientation: In flow cytometry, cells or beads pass a laser one at a time.

The subject of series [5] is HUVEC normal cells. The series can be described thus: Cell cycle analysis by flow cytometry. In kind it is cell-based, human. The protocol: as §1
(§3) In this experiment, 5 × 10^5 cells that had been previously fixed were washed and resuspended in PBS. The CycleTEST PLUS DNA Reagent kit from BD Biosciences was used according to the manufacturer’s protocol for the assay. The probes were kept in the dark and at 4 °C until data acquisition by flow cytometry (Becton Dickinson—BD) using a FACSCantoII flow cytometer from BD. The ModFIT v3.2 software was used to analyze the data and estimate the DNA index (DI) and progression through cell cycle phases.

Series [6] has as its system SK-MEL-24 tumor cells. The experiment in a line: Cell cycle analysis by flow cytometry. It counts as cell-based, human. Here is the method:
as §1, §3

Series [7] can be described thus: Thermogravimetric analysis. It counts as physicochemical. Particulars: TGA, 10 °C/min, nitrogen. The protocol:
Thermogravimetric analysis (TGA) was performed for NLC-DTX, NLC-Blank, and their components (DTX, GC, G43/01, MCT, S-PC-3, T80, mannitol) using thermal analyzer TGA Q5000IR (TA Instruments, New Castle, DE, USA). TGA curves were generated with a heating rate of 10 °C/min over a temperature range from room temperature to 700 °C, under a dynamic nitrogen atmosphere (50 mL/min). The samples were placed in a platinum pan (100 µL).

On the set-up of series [8]: method as in PMID 32164731, PMID 33531521, PMID 31310876, PMID 25974386. Particulars: cited from earlier work.
Details of series [9]: method as in PMID 32164731, PMID 25974386. Particulars: cited from earlier work.

Take `CC(=O)O[C@@]12CO[C@@H]1C[C@H](O)[C@@]1(C)C(=O)[C@H](O)C3=C(C)[C@@H](OC(=O)[C@H](O)[C@@H](NC(=O)OC(C)(C)C)c4ccccc4)C[C@@](O)([C@@H](OC(=O)c4ccccc4)[C@H]21)C3(C)C` [DTX, Docetaxel]: the “docetaxel solubility in Gelucire 43/01” value in [1] turned out to be 10 mg/g. In addition, the “docetaxel solubility in tetradecanoic acid” value in series [1] is given as 16 mg/g. Besides, the IC50 in series [2] (Homo sapiens, HUVEC, tested range 1.56–200 μg/mL, read-out: IC50 on HUVECs) is less than 1.56 µg/mL. For the same molecule, the “cell death (reduction in HUVEC viability)” value in series [2] (all tested concentrations (1.56–200 μg/mL), after 24 and 48 h) is recorded as “over 50%”. This molecule registered an apoptosis in [3] of 12.3%. Besides, the effect on apoptosis result in series [4] (24 and 48 h, untreated approximately 4–5%) is “sustained increases in apoptosis”. The increase in apoptosis entry in series [4] (after 48 h, vs untreated) is recorded as “two-fold”. Moreover, the cell cycle alterations entry was “G2/M arrest” in series [5] (50 μg/mL, 24 h); “a decrease in the G1 population, and an increase in the S phase” in series [5] (50 μg/mL, 48 h); “a decrease in the S phase accompanied by an increase in the G2 phase” in [5] (24 h, concentration not given); “an increase in the S phase and a significant decrease in the G1 phase” in series [5] (48 h, independent of the concentration). The cell cycle distribution entry in [6] (5 μg/mL, 24 h and 48 h) was “decreases the G1 phase and increases the G2 phase”; in series [6] (50 μg/mL, 24 h), “a decrease in the S phase accompanied by an increase in the G2 phase”; in series [6] (50 μg/mL, 48 h) it was “a significant decrease in the S phase”. For the same molecule, in series [7], the thermal stability limit entry was “approximately 120 °C”. In series [8], the water solubility was 4.93 µg/mL (≈ 6.1 µM). In addition, the logp value in series [9] was 4.1.

Broadly, the IC50 is the concentration at which inhibition is half-maximal.
